The text below walks through data of patent US20220235006A1, “PYRIDINE DERIVATIVES AS TMEM16A MODULATORS FOR USE IN THE TREATMENT OF RESPIRATORY CONDITIONS” (TMEM16A LIMITED, priority 2019, published 2022).

Values after ≈ are worked out from the molar mass of the structure shown.

The target in series [1] is T1, human TMEM16A (TMEM16Aabc variant) (Homo sapiens, UniProt Q5XXA6, DEL476-501).
T1 sequence (Q5XXA6 with tags, fused parts or gaps isoform Q5XXA6-5 DEL539-564): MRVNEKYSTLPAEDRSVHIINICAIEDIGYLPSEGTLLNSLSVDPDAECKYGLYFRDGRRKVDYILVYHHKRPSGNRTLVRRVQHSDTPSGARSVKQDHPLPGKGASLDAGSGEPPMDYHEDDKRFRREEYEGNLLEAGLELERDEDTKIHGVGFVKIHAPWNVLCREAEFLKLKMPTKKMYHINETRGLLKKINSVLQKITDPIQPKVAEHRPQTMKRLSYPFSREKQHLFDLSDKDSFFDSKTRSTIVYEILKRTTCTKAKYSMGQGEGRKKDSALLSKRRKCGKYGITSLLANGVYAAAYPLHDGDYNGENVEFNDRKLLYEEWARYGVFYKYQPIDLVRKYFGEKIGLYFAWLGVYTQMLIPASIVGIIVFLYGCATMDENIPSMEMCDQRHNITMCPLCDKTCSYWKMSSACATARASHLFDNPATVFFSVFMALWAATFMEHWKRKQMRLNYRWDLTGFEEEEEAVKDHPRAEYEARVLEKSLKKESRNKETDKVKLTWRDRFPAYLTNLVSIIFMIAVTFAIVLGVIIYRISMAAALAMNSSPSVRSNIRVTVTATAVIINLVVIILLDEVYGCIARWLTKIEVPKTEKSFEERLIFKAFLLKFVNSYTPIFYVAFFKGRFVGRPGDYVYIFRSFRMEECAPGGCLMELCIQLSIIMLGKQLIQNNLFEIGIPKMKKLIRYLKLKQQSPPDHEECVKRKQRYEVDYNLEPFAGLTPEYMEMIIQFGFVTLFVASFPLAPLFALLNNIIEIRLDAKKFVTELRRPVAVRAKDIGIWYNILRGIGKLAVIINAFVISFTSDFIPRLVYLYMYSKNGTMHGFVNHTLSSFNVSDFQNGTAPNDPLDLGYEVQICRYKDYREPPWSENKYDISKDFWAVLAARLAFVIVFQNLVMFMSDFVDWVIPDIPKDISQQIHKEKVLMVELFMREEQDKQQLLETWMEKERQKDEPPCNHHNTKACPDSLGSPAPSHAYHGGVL
As to the kind of experiment: Automated whole-cell patch clamp (Qpatch) TMEM16A potentiator assay in recombinant FRT cells. The series is classed as cell-based. Conditions: for activation at 3.33 µM: percentage increase of baseline TMEM16A current, minimum n = 2, read-out: % Potentiation @ 3.33 uM Avg; for EC50: minimum n = 2. The procedure, abridged: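 FRT cells stably expressing human TMEM16Aabc, whole-cell automated patch clamp with intracellular Ca2+ buffered for ~20% maximal current (EC20). Held at −70 mV, step to +70 mV/ramp at 0.05 Hz, cumulative compound additions of 5 min each. Peak +70 mV current increase expressed as % potentiation of baseline.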

The nature of series [2]: Log D (pH7.4 shake flask). Type of series: physicochemical. Conditions: pH 7.4; 1-octanol/phosphate buffer shake flask; read-out: mLogD (pH 7.4). Here is the method: Phosphate buffer (1 M) was diluted to 20 mM with deionised water and adjusted to pH 7.4 with phosphoric acid or sodium hydroxide. 1-octanol and phosphate buffer (20 mM) were saturated overnight by tumbling. The two phases were separated using a separation funnel. 5 μL of 5 mM compound cassette was added to 495 μL of octanol-saturated buffer and 495 μL buffer saturated octanol in a 96-well plate (top concentration 50 μM). Plate was shaken for 1 h and centrifuged at 25° C. for 5 min. 200 μL of each phase was transferred to a separate plate. The octanol layer was sampled first to avoid cross contamination. 5 μL of the solutions were transferred to 495 μL of quench solution* (max concentration 0.5 μM). In addition, 40 μL of buffer solution was added to 360 μL of quench solvent (max concentration 5 μM). Samples were analysed by LC-MS/MS. Benchmarking against a calibration curve for each compound and with reference to the control compounds sulpride, diclofenac, chlorpromazine and tamoxifen. *Quench solution was a 1:3:1 mixture (v/v/v) of Acetonitrile containing 0.1% formic acid and imipramine/labetalol, 200 nM:Acetonitrile:Water.

A short description of series [3]: Kinetic solubility determination (high throughput). The conditions noted are these: kinetic from dmso stock, sterile water, 5% DMSO, room temperature. The series is classed as physicochemical. As to the method: Test compounds (10 μL; 20 mM DMSO solution) were added to sterile water (190 μL) in triplicate and shaken at 300 rpm at room temperature. After 90 min. the test compounds were filtered by centrifuge (5 min. at 3000 rpm) to obtain the aqueous filtrate. Acetonitrile (20 μL) was dispensed into clean 96-well UV/VIS analysis plate and aqueous filtrate (80 μL) added and the plate analysed for test compound concentration using a Molecular Devices SPECTRAmax® plus microplate reader at the following wavelengths: (280, 300, 320, 340, 360, 800 nm). […] The diluted filtrate (80 μL) was then added to acetonitrile (20 μL) and the plate analysed. as previously.

The EC50 is the midpoint of the concentration-response curve. As a reminder, the kinetic solubility is the concentration staying in solution when a stock, usually in DMSO, is diluted into the medium. On to `CC(C)(C)c1cc(Cl)c(CC(=O)Nc2ccnc(C(=O)NC3(C(F)(F)F)CC3)c2)cc1O` [Example 10.1, 4-[[2-(4-tert-Butyl-2-chloro-5-hydroxy-phenyl)acetyl]amino]-N-[1-(trifluoromethyl)cyclopropyl]pyridine-2-carboxamide], for which, in series [1], the activation at 3.33 µM worked out at 250% and the EC50 stood at 57 nM. In series [2], the logD was found to be 3.7. The solubility (kinetic) at 90 min in series [3] was 256 µg/mL (≈ 545 µM).

Take `CC(C)c1cc(C(C)(C)C)c(O)cc1CC(=O)Nc1ccnc(C(=O)NC(C)(C)C)c1` [Example 6, N-tert-Butyl-4-[[2-(4-tert-butyl-5-hydroxy-2-isopropyl-phenyl)acetyl]amino]pyridine-2-carboxamide]: in series [1], the activation at 3.33 µM was 513% and the EC50 amounted to 99 nM. In series [2], the logD is greater than 4. The molecule also returned a solubility (kinetic) at 90 min in series [3] of 12 µg/mL (≈ 28.2 µM).

As for `CC1(NC(=O)c2cc(NC(=O)Cc3cc(O)c(C(C)(C)CO)cc3Cl)ccn2)CC(F)(F)C1` [Example 15.2, 4-[[2-[2-Chloro-5-hydroxy-4-(2-hydroxy-1,1-dimethyl-ethyl)phenyl]acetyl]amino]-N-(3,3-difluoro-1-methyl-cyclobutyl)pyridine-2-carboxamide], in series [1], the activation at 3.33 µM amounted to 195% and the EC50 is 36 nM. The logD in series [2] is greater than 4.2. In series [3], this molecule displayed a solubility (kinetic) at 90 min of 44 µg/mL (≈ 91.3 µM).

In the case of `CC(C)(C#N)NC(=O)c1cc(NC(=O)Cc2cc(O)c(C(C)(C)CN3CCOCC3)cc2F)ccn1` [Example 2.5, N-(1-Cyano-1-methyl-ethyl)-4-[[2-[4-(1,1-dimethyl-2-morpholino-ethyl)-2-fluoro-5-hydroxy-phenyl]acetyl]amino]pyridine-2-carboxamide], the activation at 3.33 µM in series [1] turned out to be 112%. For the same molecule, the logD in series [2] is 2.7. The same molecule displayed a kinetic solubility at 90 min in series [3] of 327 µg/mL (≈ 657 µM).

Consider `C#CC(C)(C)NC(=O)c1cc(NC(=O)Cc2cc(O)c(C(C)(C)C)cc2F)ccn1` [Example 1.1], for which, in series [1], the activation at 3.33 µM came to 118% and the EC50 is 26 nM. Also, the logD in series [2] was greater than 4. In addition, the kinetic solubility at 90 min in series [3] came to 6 µg/mL (≈ 14.6 µM).

For the molecule `N#CC1(NC(=O)c2cc(NC(=O)Cc3cc(O)c(C4(C(F)(F)F)CC4)cc3F)ccn2)CC1` [Example 9, N-(1-Cyanocyclopropyl)-4-[[2-[2-fluoro-5-hydroxy-4-[1-(trifluoromethyl)cyclopropyl]phenyl]acetyl]amino]pyridine-2-carboxamide], in series [1], the activation at 3.33 µM was determined as 378% and the EC50 was found to be 88 nM. For the same molecule, the logD in series [2] amounted to 3.5. The molecule further returned a kinetic solubility at 90 min in series [3] of 72 µg/mL (≈ 156 µM).

Turning to `CC(C)(CO)c1cc(F)c(CC(=O)Nc2ccnc(C(=O)N[C@H]3CCC[C@@H]3O)c2)cc1O` [Example 12.2, 4-[[2-[2-Fluoro-5-hydroxy-4-(2-hydroxy-1,1-dimethyl-ethyl)phenyl]acetyl]amino]-N-[(1S,2S)-2-hydroxycyclopentyl]pyridine-2-carboxamide], in series [1], the activation at 3.33 µM turned out to be 142% and the EC50 was determined as 238 nM. Further, the logD in series [2] turned out to be 2.6. In series [3], this molecule displayed a solubility (kinetic) at 90 min of 296 µg/mL (≈ 664 µM).

In the case of `CC(C)(C)NC(=O)c1cc(NC(=O)Cc2cc(O)c(C(C)(C)C#N)cc2F)ccn1` [Example 2.2, N-tert-Butyl-4-[[2-[4-(1-cyano-1-methyl-ethyl)-2-fluoro-5-hydroxy-phenyl]acetyl]amino]pyridine-2-carboxamide], in series [1], the activation at 3.33 µM was 356% and the EC50 stood at 150 nM. In series [2], the logD is greater than 4.2. Moreover, the kinetic solubility at 90 min in series [3] is 42 µg/mL (≈ 102 µM).

Take `CC(C)(CO)c1cc(F)c(CC(=O)Nc2ccnc(C(=O)NC3(C(F)(F)F)CC3)c2)c(F)c1O` [Example 16.4, 4-[[2-[2,6-Difluoro-3-hydroxy-4-(2-hydroxy-1,1-dimethyl-ethyl)phenyl]acetyl]amino]-N-[1-(trifluoromethyl)cyclopropyl]pyridine-2-carboxamide]: in series [1], the activation at 3.33 µM was 280% and the EC50 was 18 nM. Also, the logD in series [2] is 3.6. The same molecule displayed a solubility (kinetic) at 90 min in series [3] of 75 µg/mL (≈ 154 µM).
